Assay results published in US4490364A, “CCK Agonists II” (The Salk Institute for Biological Studies, priority 1983, dated 1984).
Non-standard residues stand in square brackets, D forms with d. Residues, ends and D or L forms follow the SMILES beside them. sY = N[C@@H](Cc1ccc(OS(=O)(=O)O)cc1)C(=O)O

Columns and labels:
[1] = tested on: mouse; experiment: anticonvulsive effect against picrotoxin-induced seizures in the mouse; type: in vivo; details: peptide about 0.8 micromoles per kg parenterally, then picrotoxin i.p., relative to CCK(1-8) = 100%
Protocol: The anticonvulsive effect is measured by the method as generally described in The European J. of Pharm., 65, 297 (1980). More specifically, a mouse is first injected parenterally with the peptide being tested with a single dose equal to about 0.8 micromoles per kilogram of body weight. Thereafter, picrotoxin is injected i.p. in an amount equal to about […] of body weight. The parameters that are measured: time until first tremor, time until first clonic seizure, time until first tonic seizure and time of latentia until death, measured from the time of injection of the picrotoxin.

[2] = Ondetti and Pluscec; cited from earlier work
[3] = tested on: secretion of gastric acid; details: i.v. at low dosages; cited from earlier work
[4] = tested on: muscle sphincter Oddii; details: cited from earlier work
[5] = tested on: isolated strips of rabbit gall bladder; experiment: contraction of the gall bladder (CCK-activity), isolated strips of rabbit gall bladder; type: cell-based
Protocol: (§1) To determine the effectiveness of the various synthetic peptides, they are tested for their ability to stimulate the contraction of the gall bladder, for gastrinic activity in the stomach and for their anticonvulsive effect. Certain well known tests are carried out, and the results are measured and compared to the activity of CCK(1-8). Some of the results are given as a percentage relative to the activity of CCK(1-8). The ability to stimulate the contraction of the gall bladder is measured using a modified method of Amer and Becvar, described in J. Endocrinology, 43, 637 (1969) and employing isolated strips of rabbit gall bladder.

[6] = tested on: perfused rat stomach; experiment: gastrinic activity on perfused rat stomach, conductometric titration of HCl liberated after iv administration; type: in vivo
Protocol: as §1

Compound	Delay until first tonic seizure (efficacy) [1] [%]	Delay until time of death (efficacy) [1] [%]	activity compared with the complete molecule of cholecystokinin-pancreozymin [2]	gastrinic activity in causing secretion of gastric acid [3]	action on the muscle sphincter Oddii [4]	CCK-activity % /CCK (1-8) 100%/ ([5]; relative to CCK(1-8) = 100%, contraction of isolated rabbit gall bladder strips) [%]	gastrinic activity % /Pentagastrin 100%/ ([6]; relative to pentagastrin = 100%, perfused rat stomach, iv) [%]	CCK activity compared with CCK(1-8) ([5]; result in words)	gastrinic activity ([6]; result in words)
CSCC[C@H](NC(=O)[C@H](Cc1ccc(OS(=O)(=O)O)cc1)NC(=O)[C@@H](N)CC(=O)O)C(=O)NCC(=O)N[C@@H](Cc1c[nH]c2ccccc12)C(=O)N[C@@H](CCSC)C(=O)N[C@@H](CC(=O)O)C(=O)N[C@@H](Cc1ccccc1)C(N)=O [CCK (1-8)]	100	100	considerably higher activity than the complete molecule of cholecystokinin-pancreozymin	some gastrinic activity	strong relaxing action	–	–	–	–
CSCC[C@H](NC(=O)[C@H](Cc1c[nH]c2ccccc12)NC(=O)[C@@H](C)NC(=O)[C@H](CCSC)NC(=O)[C@H](Cc1ccc(OS(=O)(=O)O)cc1)NC(C)=O)C(=O)N[C@@H](CC(=O)O)C(=O)N[C@@H](Cc1ccccc1)C(N)=O [[D-Ala^4]-Ac-CCK (2-8), Ac--Tyr(OSO3 Na)--Met--D--Ala--Trp--Met--Asp--Phe--NH2] (Ac-[sY]M[dA]WMDF-NH2)	100	126	–	–	–	40	0	–	–
H--Asp--Tyr(OSO3 Na)--Nle--Gly--Trp--Nle--Hyp(OSO3 Na)--Tyr(OCH3)--NH2	–	–	–	–	–	–	–	CCK activity significantly greater than CCK(1-8)	substantially no gastrinic activity
